The source made the active and inactive calls. No cut-off for these calls is given here.
Assays:
Lymphocyte [1] = experiment: Cytoprotective activity against human lymphocytes assessed as reduction in sister chromatid exchange frequency after 72 hrs by fluorescence/Geimsa method; type: functional, cell-based
[2] = Cytogenetic activity against human lymphocytes assessed as cytostatic activity measured as proliferative rate index at 10 uM after 72 hrs by fluorescence/Geimsa method; type: cell-based; conditions: lymphocyte
Lymphocyte [3] = experiment: Cytoprotective activity against human lymphocytes assessed as reduction in sister chromatid exchange frequency at 10 uM after 72 hrs by fluorescence/Geimsa method; type: functional, cell-based

SMILES	Activity (Lymphocyte [1])	Activity [2]	Activity (Lymphocyte [3])
COC(=O)/C=C1/CC(=O)Nc2ccccc2N1	Dose-dependent effect	–	–
COC(=O)/C=C1/CC(=O)Nc2cc(Cl)ccc2N1	Dose-dependent effect	Toxic	Active
COC(=O)/C=C1/CC(=O)Nc2cc(C)c(C)cc2N1	Dose-dependent effect	–	–

Reference: ChEMBL document CHEMBL2417523, “One-pot microwave assisted synthesis of new 2-alkoxycarbonylmethylene-4-oxo-1,5-benzo-, naphtho-, and pyridodiazepines and assessment of their cytogenetic activity” (Eur J Med Chem, 2013)
